Test [1] addresses T1, Activin receptor type-1B (Homo sapiens) (UniProt P36896).
T1 sequence (whole entry): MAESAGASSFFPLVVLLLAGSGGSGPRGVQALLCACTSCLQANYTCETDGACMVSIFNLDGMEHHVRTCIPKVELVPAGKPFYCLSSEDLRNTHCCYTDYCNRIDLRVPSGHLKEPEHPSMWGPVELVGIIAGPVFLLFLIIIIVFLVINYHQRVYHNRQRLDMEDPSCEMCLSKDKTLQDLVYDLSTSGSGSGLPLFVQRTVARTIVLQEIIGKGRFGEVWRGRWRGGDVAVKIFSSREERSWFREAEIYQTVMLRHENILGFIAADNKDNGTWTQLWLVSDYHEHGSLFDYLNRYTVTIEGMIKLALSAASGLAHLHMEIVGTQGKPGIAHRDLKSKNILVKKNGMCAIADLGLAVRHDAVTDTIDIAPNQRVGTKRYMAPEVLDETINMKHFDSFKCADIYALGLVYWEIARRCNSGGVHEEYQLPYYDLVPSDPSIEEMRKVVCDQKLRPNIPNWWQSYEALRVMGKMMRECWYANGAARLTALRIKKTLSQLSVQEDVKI
Nature of the test: Inhibition of ACVR1B (unknown origin) assessed as residual activity at 1000 nM by KINOMEscan analysis relative to control.

The target of test [2] is Bone morphogenetic protein receptor type-1A (Homo sapiens) (UniProt P36894). The experiment in a line: Inhibition of BMPR1A (unknown origin) assessed as residual activity at 1000 nM by KINOMEscan analysis relative to control.
Chain of Bone morphogenetic protein receptor type-1A (Homo sapiens) (P36894 whole entry, canonical isoform): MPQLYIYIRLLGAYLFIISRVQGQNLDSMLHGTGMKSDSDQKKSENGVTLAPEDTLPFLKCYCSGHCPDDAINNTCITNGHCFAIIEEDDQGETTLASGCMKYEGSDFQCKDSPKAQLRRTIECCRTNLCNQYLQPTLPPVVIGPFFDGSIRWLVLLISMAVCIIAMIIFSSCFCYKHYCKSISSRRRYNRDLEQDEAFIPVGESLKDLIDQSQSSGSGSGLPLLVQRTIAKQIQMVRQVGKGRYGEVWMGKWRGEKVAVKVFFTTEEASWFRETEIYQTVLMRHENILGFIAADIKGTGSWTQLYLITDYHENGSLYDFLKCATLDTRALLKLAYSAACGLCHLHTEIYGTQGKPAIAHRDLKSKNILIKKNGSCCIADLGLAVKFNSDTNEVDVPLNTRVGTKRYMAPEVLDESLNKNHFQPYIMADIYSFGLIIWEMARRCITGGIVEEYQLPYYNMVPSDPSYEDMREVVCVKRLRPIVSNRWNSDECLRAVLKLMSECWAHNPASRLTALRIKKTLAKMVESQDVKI
Test [3] has as its target Casein kinase I isoform gamma-1 (Homo sapiens) (UniProt Q9HCP0). Nature of the test: Inhibition of CSNK1G1 (unknown origin) assessed as residual activity at 1000 nM by KINOMEscan analysis relative to control.
Test [4] deals with T2, Ephrin type-B receptor 6 (Homo sapiens) (UniProt O15197).
T2 sequence (whole entry): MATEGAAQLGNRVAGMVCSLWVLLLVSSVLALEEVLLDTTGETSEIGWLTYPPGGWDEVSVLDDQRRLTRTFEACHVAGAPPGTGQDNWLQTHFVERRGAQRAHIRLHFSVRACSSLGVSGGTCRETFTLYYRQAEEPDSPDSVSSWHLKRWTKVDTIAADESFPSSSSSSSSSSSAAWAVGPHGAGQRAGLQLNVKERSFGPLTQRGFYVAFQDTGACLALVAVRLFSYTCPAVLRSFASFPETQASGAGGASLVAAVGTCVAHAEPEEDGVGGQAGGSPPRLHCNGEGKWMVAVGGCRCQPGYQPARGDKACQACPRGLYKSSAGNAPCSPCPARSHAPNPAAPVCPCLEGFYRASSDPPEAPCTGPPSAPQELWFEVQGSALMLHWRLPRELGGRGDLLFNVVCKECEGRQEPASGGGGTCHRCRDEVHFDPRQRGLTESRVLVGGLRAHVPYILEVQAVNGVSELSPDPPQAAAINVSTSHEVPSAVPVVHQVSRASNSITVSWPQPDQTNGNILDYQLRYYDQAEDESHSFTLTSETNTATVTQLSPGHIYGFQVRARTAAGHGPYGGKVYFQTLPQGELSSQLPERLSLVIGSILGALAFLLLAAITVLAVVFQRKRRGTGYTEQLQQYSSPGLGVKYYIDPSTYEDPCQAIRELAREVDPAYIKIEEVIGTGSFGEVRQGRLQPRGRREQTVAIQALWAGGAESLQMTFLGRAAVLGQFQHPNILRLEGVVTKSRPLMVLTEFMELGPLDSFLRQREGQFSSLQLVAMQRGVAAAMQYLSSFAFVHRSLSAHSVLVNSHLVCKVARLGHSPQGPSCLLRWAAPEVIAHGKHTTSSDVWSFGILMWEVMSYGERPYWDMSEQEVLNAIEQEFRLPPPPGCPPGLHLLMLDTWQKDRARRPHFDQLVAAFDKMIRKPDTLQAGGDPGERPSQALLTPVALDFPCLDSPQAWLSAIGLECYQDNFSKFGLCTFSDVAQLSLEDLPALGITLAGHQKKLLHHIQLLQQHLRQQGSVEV
Nature of the test: Inhibition of EPHB6 (unknown origin) assessed as residual activity at 1000 nM by KINOMEscan analysis relative to control.

Test [5] deals with Dual specificity mitogen-activated protein kinase kinase 2 (Homo sapiens) (UniProt P36507). Nature of the test: Inhibition of MEK2 (unknown origin) assessed as residual activity at 1000 nM by KINOMEscan analysis relative to control.
Chain of Dual specificity mitogen-activated protein kinase kinase 2 (Homo sapiens) (P36507 whole entry): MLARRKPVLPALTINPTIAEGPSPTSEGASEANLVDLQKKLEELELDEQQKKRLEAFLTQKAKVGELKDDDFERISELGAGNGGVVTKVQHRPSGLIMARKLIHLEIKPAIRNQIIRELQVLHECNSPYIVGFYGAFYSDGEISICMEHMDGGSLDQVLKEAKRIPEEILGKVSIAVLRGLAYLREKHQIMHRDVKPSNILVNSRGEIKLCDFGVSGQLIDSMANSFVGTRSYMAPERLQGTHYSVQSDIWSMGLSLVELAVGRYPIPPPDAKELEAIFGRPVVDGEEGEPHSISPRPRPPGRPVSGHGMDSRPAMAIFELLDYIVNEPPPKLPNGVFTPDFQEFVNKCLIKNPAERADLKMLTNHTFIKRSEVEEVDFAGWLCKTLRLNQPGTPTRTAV
The target of test [6] is Serine/threonine-protein kinase PLK3 (Homo sapiens) (UniProt Q9H4B4). Nature of the test: Inhibition of PLK3 (unknown origin) assessed as residual activity at 1000 nM by KINOMEscan analysis relative to control.
Chain of Serine/threonine-protein kinase PLK3 (Homo sapiens) (Q9H4B4 whole entry, looked up): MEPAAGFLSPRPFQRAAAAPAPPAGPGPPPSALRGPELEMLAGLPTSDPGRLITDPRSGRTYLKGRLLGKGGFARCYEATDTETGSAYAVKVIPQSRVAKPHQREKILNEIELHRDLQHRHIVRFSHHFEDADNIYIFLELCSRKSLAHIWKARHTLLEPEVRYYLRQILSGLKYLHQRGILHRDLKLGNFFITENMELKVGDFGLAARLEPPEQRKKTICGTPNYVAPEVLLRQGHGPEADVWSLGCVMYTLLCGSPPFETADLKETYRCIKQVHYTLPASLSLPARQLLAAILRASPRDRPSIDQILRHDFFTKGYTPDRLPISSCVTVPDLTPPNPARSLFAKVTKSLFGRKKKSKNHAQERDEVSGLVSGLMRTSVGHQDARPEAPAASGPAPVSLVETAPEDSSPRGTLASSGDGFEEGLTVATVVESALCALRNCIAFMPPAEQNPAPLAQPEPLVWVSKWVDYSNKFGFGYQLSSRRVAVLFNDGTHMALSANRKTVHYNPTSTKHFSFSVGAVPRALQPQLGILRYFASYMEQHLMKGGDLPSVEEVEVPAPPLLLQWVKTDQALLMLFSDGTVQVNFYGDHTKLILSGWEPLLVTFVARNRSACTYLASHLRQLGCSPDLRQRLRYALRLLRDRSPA
Test [7] addresses T3, cGMP-dependent protein kinase 2 (Homo sapiens) (UniProt Q13237).
T3 sequence (whole entry): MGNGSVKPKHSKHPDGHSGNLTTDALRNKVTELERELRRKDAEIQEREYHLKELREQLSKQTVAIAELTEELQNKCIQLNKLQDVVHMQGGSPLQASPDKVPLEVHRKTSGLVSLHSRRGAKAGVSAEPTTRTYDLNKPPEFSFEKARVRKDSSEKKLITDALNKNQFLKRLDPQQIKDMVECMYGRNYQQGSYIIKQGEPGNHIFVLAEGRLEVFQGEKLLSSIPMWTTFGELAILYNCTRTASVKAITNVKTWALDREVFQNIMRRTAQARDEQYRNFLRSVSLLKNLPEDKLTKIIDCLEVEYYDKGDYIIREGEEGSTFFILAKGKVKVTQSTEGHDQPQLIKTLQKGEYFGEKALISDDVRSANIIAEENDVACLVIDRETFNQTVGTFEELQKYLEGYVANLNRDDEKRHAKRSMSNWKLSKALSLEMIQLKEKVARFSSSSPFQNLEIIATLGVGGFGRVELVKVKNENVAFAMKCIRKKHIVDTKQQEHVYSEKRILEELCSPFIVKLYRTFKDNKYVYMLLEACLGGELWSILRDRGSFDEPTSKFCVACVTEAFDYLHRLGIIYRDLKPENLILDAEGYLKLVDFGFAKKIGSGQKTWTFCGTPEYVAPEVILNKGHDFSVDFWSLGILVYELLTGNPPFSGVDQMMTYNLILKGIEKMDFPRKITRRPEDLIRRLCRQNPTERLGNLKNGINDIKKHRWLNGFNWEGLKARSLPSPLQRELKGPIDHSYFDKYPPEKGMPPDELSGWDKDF
Nature of the test: Inhibition of PRKG2 (unknown origin) assessed as residual activity at 1000 nM by KINOMEscan analysis relative to control.

Test [8] concerns the target Serine/threonine-protein kinase RIO2 (Homo sapiens) (UniProt Q9BVS4). Nature of the test: Inhibition of RIOK2 (unknown origin) assessed as residual activity at 1000 nM by KINOMEscan analysis relative to control.
Test [9] deals with Serine/threonine-protein kinase SIK1 (Homo sapiens) (UniProt P57059). Nature of the test: Inhibition of SIK (unknown origin) assessed as residual activity at 1000 nM by KINOMEscan analysis relative to control.
Chain of Serine/threonine-protein kinase SIK1 (Homo sapiens) (P57059 whole entry): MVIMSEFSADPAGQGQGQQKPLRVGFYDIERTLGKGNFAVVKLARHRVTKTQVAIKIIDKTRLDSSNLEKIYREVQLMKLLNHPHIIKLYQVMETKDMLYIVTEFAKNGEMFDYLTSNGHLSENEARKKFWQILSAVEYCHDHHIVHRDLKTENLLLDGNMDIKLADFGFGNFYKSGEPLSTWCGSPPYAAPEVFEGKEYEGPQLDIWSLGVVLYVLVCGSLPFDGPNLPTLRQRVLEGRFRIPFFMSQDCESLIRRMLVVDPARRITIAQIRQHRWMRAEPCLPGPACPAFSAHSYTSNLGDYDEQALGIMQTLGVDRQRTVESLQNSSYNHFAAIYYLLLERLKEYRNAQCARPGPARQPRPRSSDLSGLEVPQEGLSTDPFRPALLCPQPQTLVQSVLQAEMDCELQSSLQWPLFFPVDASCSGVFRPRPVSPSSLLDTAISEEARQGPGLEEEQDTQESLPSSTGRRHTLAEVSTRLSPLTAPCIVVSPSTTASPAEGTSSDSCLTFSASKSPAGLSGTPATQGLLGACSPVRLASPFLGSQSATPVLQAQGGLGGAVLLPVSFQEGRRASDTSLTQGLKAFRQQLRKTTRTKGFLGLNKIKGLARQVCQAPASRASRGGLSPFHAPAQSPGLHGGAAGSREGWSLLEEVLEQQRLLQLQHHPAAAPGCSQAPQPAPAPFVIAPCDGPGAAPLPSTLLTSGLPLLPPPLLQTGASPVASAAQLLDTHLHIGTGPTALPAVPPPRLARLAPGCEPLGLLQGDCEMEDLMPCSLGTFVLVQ
Test [10] deals with Dual specificity testis-specific protein kinase 1 (Homo sapiens) (UniProt Q15569). The experiment in a line: Inhibition of TESK1 (unknown origin) assessed as residual activity at 1000 nM by KINOMEscan analysis relative to control.
Chain of Dual specificity testis-specific protein kinase 1 (Homo sapiens) (Q15569 whole entry, looked up): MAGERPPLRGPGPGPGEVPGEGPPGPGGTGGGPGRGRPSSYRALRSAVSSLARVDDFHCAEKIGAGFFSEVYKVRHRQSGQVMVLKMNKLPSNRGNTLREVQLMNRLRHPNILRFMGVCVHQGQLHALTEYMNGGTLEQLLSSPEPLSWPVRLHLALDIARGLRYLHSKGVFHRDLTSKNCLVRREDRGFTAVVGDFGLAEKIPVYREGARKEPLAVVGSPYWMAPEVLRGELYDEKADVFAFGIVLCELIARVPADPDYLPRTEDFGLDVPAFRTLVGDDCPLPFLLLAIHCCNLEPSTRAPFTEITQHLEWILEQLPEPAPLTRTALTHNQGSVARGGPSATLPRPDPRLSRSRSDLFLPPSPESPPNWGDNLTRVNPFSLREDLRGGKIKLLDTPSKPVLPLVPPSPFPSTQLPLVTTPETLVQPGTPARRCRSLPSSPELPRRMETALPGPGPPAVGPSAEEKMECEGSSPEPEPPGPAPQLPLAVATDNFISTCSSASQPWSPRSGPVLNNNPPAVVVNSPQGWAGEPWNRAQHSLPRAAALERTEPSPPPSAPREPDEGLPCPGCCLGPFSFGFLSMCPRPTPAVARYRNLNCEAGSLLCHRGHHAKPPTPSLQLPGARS

Chain of Serine/threonine-protein kinase RIO2 (Homo sapiens) (Q9BVS4 whole entry, looked up): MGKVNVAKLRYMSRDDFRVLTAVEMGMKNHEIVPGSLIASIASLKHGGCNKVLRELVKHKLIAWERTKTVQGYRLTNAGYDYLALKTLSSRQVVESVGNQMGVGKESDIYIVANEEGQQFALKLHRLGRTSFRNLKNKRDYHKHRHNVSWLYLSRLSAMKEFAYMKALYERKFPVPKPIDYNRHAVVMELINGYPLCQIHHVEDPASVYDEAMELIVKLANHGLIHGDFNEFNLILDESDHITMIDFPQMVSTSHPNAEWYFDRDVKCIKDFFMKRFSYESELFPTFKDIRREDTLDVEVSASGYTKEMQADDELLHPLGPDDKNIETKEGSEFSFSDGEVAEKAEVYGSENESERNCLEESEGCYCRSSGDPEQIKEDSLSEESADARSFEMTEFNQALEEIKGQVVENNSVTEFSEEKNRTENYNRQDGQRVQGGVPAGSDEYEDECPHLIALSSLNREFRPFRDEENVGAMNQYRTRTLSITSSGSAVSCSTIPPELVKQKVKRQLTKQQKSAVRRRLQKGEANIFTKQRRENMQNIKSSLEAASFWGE
Chain of Casein kinase I isoform gamma-1 (Homo sapiens) (Q9HCP0 whole entry, looked up, canonical isoform): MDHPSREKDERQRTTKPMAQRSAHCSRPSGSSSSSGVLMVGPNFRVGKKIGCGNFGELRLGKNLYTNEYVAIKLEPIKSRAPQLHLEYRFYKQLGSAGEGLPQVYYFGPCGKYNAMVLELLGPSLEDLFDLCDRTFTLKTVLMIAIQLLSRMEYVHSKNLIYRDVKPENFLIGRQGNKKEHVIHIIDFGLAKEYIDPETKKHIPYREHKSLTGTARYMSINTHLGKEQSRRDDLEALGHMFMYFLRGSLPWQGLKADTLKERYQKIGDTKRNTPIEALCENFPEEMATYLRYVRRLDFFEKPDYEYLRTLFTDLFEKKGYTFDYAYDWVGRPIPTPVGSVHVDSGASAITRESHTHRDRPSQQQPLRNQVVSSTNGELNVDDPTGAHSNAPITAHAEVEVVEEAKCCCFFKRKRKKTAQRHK

Consider `COc1cc2ncnc(N[C@H](C)c3cccc4ccccc34)c2cc1OC`, for which the Activity in test [1] was 100%; in [2], 100%; in test [3], 100%; in [4] it was 73%; in [5], 91%; in test [6] it was 81%. Further, the Activity amounted to 91% in test [7], 82% in [8], 98% in test [9] and 96% in test [10].
Take `COc1cc2nc(C)nc(N[C@H](C)c3cccc(-c4cn[nH]c4)c3)c2cc1OC`: the Activity came to 100% in [1]; 97% in [2]; 96% in test [3]; 100% in test [4]; 63% in [5]; 88% in test [6]. For the same compound, the Activity was 98% in test [7], 61% in [8], 65% in test [9] and 100% in [10].

Source of the values: ChEMBL document CHEMBL5678818, “Discovery of potent SOS1 inhibitors that block RAS activation via disruption of the RAS-SOS1 interaction” (Proc Natl Acad Sci U S A, 2019).
